Measurements published in ChEMBL document CHEMBL1201862, “PubChem BioAssay data set” (2004).
Activity calls are given as the source filed them.

Legend:
Vero [1] = test: cells; type: functional, cell-based; settings: Chlorocebus sabaeus
[2] = Luminescence Cell-Based Dose Response HTS to Identify Activators of Luciferase Translation or Activity in H4 […] Cells. [Related pubchem assays: 1829 (Project Summary), 1814 (Primary HTS)]; type: functional
[3] = HepG2 cell cytotoxicity, dose response, cytotoxicity control for Shn3 inhibitor project, CellTiter-Glo, cherry-picked (AID 624134); type: functional, cell-based
Interleukin-8 [4] = biological target: T1, Interleukin-8 (Homo sapiens, UniProt P10145); test: Dose Response confirmation of uHTS small molecule hits for cystic fibrosis induced NFkb Inhibitors in a TNFa-induced IL8 counterscreen.; type: functional; settings: read-out: IC50_Mean
T1 sequence (P10145 whole entry): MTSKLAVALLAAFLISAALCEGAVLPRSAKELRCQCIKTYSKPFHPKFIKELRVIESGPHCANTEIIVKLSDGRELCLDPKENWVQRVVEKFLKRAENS

INS1 = test: beta cell apoptosis inhibitors, cytokine rescue, dose response, luminescence, retest (AID 449756); type: functional, cell-based; settings: Rattus norvegicus;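 note: cell death triggered by IL-1 beta plus TNF-alpha plus IFN-gamma mixture; protective hits raise ATP signal compared with cytokine alone wells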
[5] = Shn3 3'UTR reporter inhibitors, dose response, cell-based, Clone20 osteoblasts, firefly luciferase, cherry-picked (AID 624132); type: functional;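 note: firefly luciferase luminescence from reporter carrying the Shn3 3'UTR in osteoblasts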
Vero [6] = test: cells; type: functional; settings: Chlorocebus sabaeus
H4 = test: Luminescence Cell-Based Dose Response HTS to Identify Activators of 5'UTR Stem-Loop Driven Prion Protein mRNA Translation in H4 Neuroglioblastoma Cells. [Related pubchem assays: 1829 (Project Summary), 1814 (Primary HTS)]; type: functional; settings: Homo sapiens
[7] = control 3'UTR Renilla luciferase suppression, dose response, counter-screen for Shn3 inhibitor project, cell-based, Clone20-Shn3RL, cherry-picked (AID 624133); type: functional
[8] = Luminescence Cell-Based Dose Confirmation HTS to Identify Activators of 5'UTR Stem-Loop Driven Alpha-Synuclein mRNA Translation in H4 Neuroglioblastoma Cells. [Related pubchem assays: 1829 (Project Summary), 1814 (Primary HTS)]; type: functional
Interleukin-8 [9] = biological target: T1, Interleukin-8; test: Dose Response confirmation of uHTS small molecule hits for cystic fibrosis induced NFkb Inhibitors in a PAF-induced IL8 counterscreen.; type: functional; settings: read-out: IC50_Mean
[10] = biological target: Fructose-bisphosphate aldolase (Mycobacterium tuberculosis, UniProt P9WQA3); test: Fluorescence-based biochemical high throughput dose response assay for inhibitors of the fructose-bisphosphate aldolase (FBA) of M. tuberculosis.; type: functional
[11] = biological target: T2, Replicative DNA helicase DnaB (Mycobacterium tuberculosis, UniProt P9WMR3); test: DnaB intein splicing inhibitors, dose response, biochemical, cell-free fluorescence (AID 449749); type: functional
T2 sequence (P9WMR3 whole entry): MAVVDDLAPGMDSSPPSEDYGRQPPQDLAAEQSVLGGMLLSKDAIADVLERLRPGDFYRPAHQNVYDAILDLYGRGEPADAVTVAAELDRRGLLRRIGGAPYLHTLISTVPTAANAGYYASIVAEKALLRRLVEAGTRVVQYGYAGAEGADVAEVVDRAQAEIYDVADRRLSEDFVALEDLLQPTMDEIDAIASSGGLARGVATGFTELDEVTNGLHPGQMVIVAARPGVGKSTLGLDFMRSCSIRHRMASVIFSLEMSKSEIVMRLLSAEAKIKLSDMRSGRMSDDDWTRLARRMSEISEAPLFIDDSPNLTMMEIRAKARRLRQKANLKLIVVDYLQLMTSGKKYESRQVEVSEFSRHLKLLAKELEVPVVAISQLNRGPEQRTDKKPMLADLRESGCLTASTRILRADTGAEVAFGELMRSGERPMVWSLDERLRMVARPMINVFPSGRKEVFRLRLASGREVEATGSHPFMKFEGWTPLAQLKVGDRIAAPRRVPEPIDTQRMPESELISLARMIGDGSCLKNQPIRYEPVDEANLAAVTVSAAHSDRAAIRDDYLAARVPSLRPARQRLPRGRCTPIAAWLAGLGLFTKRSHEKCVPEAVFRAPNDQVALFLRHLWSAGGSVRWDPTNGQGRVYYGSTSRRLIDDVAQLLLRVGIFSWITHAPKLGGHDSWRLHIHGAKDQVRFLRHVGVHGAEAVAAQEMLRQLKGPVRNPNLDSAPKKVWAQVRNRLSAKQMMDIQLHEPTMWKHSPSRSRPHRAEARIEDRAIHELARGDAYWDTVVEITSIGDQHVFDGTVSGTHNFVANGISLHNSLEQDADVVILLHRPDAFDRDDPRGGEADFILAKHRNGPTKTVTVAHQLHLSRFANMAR

[12] = HeLa cell cytotoxicity, dose response, cytotoxicity control for MgcRacGAP inhibitor project (AID 624300); type: functional
Protein RecA = biological target: T3, Protein RecA (Mycobacterium tuberculosis, UniProt P9WHJ3); test: Fluorescence Cell-Free Homogeneous Dose Retest to Identify Inhibitors of RecA-Intein Splicing Activity. [Related pubchem assays (depositor defined):AID2097, AID2223, AID489010, AID492950]; type: functional
T3 sequence (P9WHJ3 whole entry): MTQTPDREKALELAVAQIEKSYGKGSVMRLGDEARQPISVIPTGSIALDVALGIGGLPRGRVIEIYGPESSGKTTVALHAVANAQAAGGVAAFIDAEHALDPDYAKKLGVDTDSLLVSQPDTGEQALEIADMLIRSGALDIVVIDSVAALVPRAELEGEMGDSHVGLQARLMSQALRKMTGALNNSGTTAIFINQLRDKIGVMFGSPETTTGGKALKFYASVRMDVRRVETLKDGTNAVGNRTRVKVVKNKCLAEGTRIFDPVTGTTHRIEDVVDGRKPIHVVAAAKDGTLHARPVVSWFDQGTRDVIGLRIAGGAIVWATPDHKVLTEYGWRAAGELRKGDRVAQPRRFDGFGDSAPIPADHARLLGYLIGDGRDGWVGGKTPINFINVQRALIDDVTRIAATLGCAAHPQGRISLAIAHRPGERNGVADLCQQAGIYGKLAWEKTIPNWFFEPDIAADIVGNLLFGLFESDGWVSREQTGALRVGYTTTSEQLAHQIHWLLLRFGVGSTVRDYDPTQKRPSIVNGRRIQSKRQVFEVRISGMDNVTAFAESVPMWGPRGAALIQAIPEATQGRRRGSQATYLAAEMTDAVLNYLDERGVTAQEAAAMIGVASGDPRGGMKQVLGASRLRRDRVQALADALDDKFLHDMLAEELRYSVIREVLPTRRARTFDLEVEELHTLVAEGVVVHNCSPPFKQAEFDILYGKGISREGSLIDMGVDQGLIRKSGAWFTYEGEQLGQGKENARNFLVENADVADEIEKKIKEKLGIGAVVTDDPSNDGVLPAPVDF

[13] = biological target: Dual specificity tyrosine-phosphorylation-regulated kinase 1A (Rattus norvegicus, UniProt Q63470); type: biochemical, Homo sapiens
[14] = biological target: T4, Rac GTPase-activating protein 1 (Homo sapiens, UniProt Q9H0H5); test: MgcRacGAP GTPase-activating activity inhibitors, confirmation, biochemical, ADP Hunter fluorescence, primary and confirmatory (AID 624330); type: functional
T4 sequence (Q9H0H5 whole entry): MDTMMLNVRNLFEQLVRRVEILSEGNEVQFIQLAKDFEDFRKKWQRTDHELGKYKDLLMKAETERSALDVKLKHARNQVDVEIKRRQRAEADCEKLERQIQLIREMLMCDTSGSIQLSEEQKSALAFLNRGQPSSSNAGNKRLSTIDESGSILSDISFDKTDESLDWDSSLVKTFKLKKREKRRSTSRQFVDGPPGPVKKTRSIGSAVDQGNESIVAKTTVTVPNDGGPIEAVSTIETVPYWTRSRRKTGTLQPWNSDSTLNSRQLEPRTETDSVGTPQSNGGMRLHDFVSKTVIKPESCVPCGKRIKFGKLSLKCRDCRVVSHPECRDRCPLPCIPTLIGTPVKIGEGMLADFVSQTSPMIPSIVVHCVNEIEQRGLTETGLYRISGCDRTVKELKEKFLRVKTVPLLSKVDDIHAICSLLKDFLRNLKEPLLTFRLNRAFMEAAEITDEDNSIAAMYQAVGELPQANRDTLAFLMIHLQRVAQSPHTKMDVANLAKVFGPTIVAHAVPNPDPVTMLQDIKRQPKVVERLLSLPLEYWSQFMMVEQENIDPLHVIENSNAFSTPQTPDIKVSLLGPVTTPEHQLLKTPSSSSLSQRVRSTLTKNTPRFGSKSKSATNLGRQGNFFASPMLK

cells [15] = type: functional, cell-based
[16] = biological target: T5, Nuclear receptor subfamily 0 group B member 1 (Homo sapiens, UniProt P51843); type: functional, cell-based;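 note: HEK293T cells transfected with SF-1 and DAX-1 plus StAR promoter luciferase reporter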
T5 sequence (P51843 whole entry): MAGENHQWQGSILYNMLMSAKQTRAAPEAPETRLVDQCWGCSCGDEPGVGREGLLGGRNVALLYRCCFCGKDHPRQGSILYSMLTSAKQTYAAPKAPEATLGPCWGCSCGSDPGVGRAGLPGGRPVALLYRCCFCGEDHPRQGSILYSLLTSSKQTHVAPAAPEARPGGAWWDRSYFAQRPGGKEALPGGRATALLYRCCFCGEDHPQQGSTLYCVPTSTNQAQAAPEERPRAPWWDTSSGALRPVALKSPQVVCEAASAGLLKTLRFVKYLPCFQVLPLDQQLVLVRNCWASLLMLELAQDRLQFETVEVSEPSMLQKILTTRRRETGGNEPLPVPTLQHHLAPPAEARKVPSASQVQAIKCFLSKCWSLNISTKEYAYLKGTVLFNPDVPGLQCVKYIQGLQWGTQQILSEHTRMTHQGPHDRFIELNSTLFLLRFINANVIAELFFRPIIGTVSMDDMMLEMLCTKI

cells [17] = type: functional, cell-based; remark: listed apart in the source
cells [18] = type: functional, cell-based; remark: listed apart in the source
[19] = biological target: T6, Trace amine-associated receptor 1 (Homo sapiens, UniProt Q96RJ0); test: Counterscreen for agonists of the human trace amine associated receptor 1 (hTAAR1): Fluorescence-based cell-based high throughput dose response assay to identify hTAAR1 agonist that also desensitize TAAR1 receptor response.; type: functional
T6 sequence (Q96RJ0 whole entry): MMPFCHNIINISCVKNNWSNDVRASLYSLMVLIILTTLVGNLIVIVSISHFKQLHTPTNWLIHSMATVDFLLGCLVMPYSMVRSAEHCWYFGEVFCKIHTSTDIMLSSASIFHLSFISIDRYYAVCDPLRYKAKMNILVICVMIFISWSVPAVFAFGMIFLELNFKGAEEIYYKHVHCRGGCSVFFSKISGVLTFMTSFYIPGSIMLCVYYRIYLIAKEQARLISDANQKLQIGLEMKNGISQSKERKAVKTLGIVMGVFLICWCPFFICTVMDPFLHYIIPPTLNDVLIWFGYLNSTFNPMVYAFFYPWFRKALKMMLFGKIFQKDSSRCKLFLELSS

[20] = biological target: T6, Trace amine-associated receptor 1; test: Fluorescence-based cell-based high throughput dose response assay to identify agonists of the human trace amine associated receptor 1 (TAAR1).; type: functional
Cytochrome P450 2C9 = Cytochrome P450 2C9 (Homo sapiens, UniProt P11712)
Cytochrome P450 2C19 = Cytochrome P450 2C19 (Homo sapiens, UniProt P33261); test: Cytochrome panel assay with activity outcomes. Panel member name: p450-cyp2c19 Compounds with AC50 equal or less than 10 uM are considered active; type: functional; settings: read-out: AC50
Chain of Cytochrome P450 2C19 (P33261 whole entry): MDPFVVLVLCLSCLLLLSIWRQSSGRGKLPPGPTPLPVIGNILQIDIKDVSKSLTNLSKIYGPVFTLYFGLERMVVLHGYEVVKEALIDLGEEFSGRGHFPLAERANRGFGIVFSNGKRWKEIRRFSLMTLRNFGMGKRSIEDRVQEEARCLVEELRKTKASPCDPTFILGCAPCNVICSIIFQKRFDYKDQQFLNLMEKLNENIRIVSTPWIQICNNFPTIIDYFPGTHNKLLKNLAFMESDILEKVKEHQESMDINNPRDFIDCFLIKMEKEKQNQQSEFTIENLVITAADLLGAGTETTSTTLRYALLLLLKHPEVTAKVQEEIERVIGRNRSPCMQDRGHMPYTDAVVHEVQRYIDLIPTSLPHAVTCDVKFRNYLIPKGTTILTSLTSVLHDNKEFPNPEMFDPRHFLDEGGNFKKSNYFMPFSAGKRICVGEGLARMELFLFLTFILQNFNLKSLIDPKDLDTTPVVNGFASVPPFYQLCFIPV

Chain of Fructose-bisphosphate aldolase (P9WQA3 whole entry): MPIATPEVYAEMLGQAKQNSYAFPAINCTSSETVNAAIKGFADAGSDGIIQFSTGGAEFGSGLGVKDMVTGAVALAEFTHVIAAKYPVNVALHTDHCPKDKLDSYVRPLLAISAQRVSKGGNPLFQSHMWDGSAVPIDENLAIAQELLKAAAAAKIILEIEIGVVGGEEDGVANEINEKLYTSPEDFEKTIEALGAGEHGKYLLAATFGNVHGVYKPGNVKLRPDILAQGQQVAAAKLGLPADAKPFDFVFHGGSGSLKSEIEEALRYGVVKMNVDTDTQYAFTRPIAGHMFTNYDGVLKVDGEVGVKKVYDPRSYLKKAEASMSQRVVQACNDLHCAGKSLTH
Chain of Cytochrome P450 2C9 (P11712 whole entry): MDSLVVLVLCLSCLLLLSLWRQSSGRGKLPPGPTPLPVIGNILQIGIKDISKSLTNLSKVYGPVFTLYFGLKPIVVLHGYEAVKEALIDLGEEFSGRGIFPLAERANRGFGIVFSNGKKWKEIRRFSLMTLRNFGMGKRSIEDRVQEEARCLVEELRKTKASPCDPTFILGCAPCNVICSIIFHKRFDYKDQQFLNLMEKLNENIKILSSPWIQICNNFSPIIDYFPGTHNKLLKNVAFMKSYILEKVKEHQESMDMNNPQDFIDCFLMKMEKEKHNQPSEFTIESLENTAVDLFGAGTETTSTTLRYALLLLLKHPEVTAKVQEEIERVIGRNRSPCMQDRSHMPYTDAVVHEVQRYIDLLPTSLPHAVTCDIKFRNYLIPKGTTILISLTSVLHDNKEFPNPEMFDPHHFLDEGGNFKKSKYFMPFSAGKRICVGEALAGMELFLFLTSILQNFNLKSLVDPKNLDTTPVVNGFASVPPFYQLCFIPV

## C=CCSc1nc2ccccc2n1C(=O)/C=C/c1ccc(OC)c(OC)c1
Vero [1]
  IC50: > 25 µM (active)
[2]
  EC50: > 120 µM (not active)
[3]
  AC50: 49.4 µM (active)
Interleukin-8 [4]
  IC50: > 79 µM (inactive)
INS1
  AC50: 8.85 µM (active)
[5]
  AC50: 1.31 µM (active)
Vero [6]
  CC50: 9.91 µM (active)
H4
  EC50: > 120 µM (not active)
[7]
  AC50: 12.5 µM (active)
[8]
  EC50: > 120 µM (not active)
Interleukin-8 [9]
  IC50: 0.685 µM (active)

## CS(=O)(=O)NN1C(=O)c2ccccc2NC1c1ccccc1 (stereo unspecified)
[10]
  IC50: > 1.11 µM (active)

## Oc1ccc(NC(=S)N=Nc2c(O)[nH]c3ccc(Br)cc23)cc1
[11]
  AC50: 12.1 µM (active)
[12]
  CC50: 61.5 µM (active)
Protein RecA
  EC50: 13.7 µM (active)
[13]
  AC50: 1.2 µM (active)
[14]
  IC50: 152 µM (active)

## Cc1ccc2c(Cl)c(C(=O)NC3CC3)sc2c1
Cells [15]
  IC50: > 67.5 µM (inactive)
[16]
  IC50: > 7.49 µM (active)

## Cc1cc(C(=O)COC(=O)C2=NNC(=O)CC2)c(C)n1CCc1ccccc1
Cells [17]
  IC50: > 29.9 µM (inactive)
Cells [18]
  EC50: > 29.9 µM (inactive)
[19]
  IC50: 7.2 µM (active)
[20]
  EC50: 1.58 µM (active)

## CCOC(=O)c1[nH]c2cc3c(cc2c1NC(=O)CN1CCc2ccccc2C1)OCO3
[10]
  IC50: 0.485 µM (active)
Cytochrome P450 2C9
  AC50: 7.94 µM (inconclusive)
Cytochrome P450 2C19
  AC50: 2.24 µM (inconclusive)
